Here are results for five compounds from PMC8191813 (Antiviral research, 2017).

The nature of one series: in vitro. The note with it: human.
A further series concerns CCHFV. The note with it: read-out: previously reported EC50; cited from earlier work.
The test system of series [1] is CCHFV/ZsG. The experiment in a line: microbe, parasite or virus in culture. In kind it is cell-based, Crimean-Congo hemorrhagic fever virus.
The next series deals with wild-type CCHFV. The experiment in a line: microbe, parasite or virus in culture. In kind it is cell-based, Crimean-Congo hemorrhagic fever virus. The note with it: for EC50: Orthonairovirus haemorrhagiae, Huh-7, read-out: EC50 CCHFV.
For series [2], the system named is CCHFV/ZsG. Nature of the series: microbe, parasite or virus in culture. Format: cell-based, Crimean-Congo hemorrhagic fever virus. As to conditions: Orthonairovirus haemorrhagiae, SW13, read-out: EC50 CCHFV/ZsG.
The next series concerns CCHF. The note with it: in vivo; cited from earlier work.
A further series relates to rats. As to conditions: rat, in vivo; cited from earlier work.
The next series relates to woodchucks. As to conditions: in vivo; cited from earlier work.
Where [3] appears, read: Orthonairovirus haemorrhagiae, Huh-7, read-out: EC50 CCHFV/ZsG.

In general, viability refers to a per cent measure of how many cells are alive, often set against a control. Lower therefore signals a greater loss of cells.

Like-named read-outs stand apart in the source and are kept apart here.

Turning to `NC(=O)c1ncn([C@@H]2O[C@H](CO)[C@@H](O)[C@H]2O)n1` [Ribavirin, ribavirin], the CC50 in “in vitro” is above 150000 nM. The EC50 in the series with CCHFV was 11500 nM; in the series with CCHFV/ZsG [1] (setting [3]) it was 12500 ± 2600 nM; in the series with CCHFV/ZsG [1] (read-out: EC50 CCHFV/ZsG) it was 12500 nM; in the series with wild-type CCHFV, 5690 nM; with CCHFV/ZsG [2], 5690 ± 710 nM. The “selectivity index (SI) CCHFV/ZsG” value with CCHFV/ZsG [1] was 12.48 ± 2.61 (> 10). In addition, the “selectivity index (SI) CCHFV” value in the series with wild-type CCHFV is recorded as 5.69 (> 26). Further, the “virus detection at the highest concentration of compound tested” value (shortened to “virus detection”) in the series with wild-type CCHFV is reported as “no virus detected”.

Regarding `NC(=O)c1nc(F)c[nH]c1=O` [T-705, favipiravir], in “in vitro”, the CC50 is above 50000 nM and the viability was above 80%. Moreover, the EC50 with CCHFV is 7000 nM. Besides, in the series on CCHFV/ZsG [1], the “ZsG fluorescence in initial screen” value is given as < 30 % of control and the “selectivity index (SI) CCHFV/ZsG” value is given as 1.03 ± 0.16 (> 50). Moreover, the EC50 in the series on CCHFV/ZsG [1] (setting [3]) was determined as 1030 nM. In addition, in the series on wild-type CCHFV, the “CCHFV titer reduction compared to DMSO only-treated control” value is recorded as “approximately 2 logs”, the “selectivity index (SI) CCHFV” value is recorded as 0.88 (> 57), the “virus detection” value is given as “no virus detected” and the EC50 came to 880 nM. Also, the “efficacy in mouse model of CCHF” value in the series with CCHF is “higher efficacy than ribavirin”.

Compound `COc1c(C)c2c(c(O)c1C/C=C(\C)CCC(=O)O)C(=O)OC2` [Mycophenolic acid, mycophenolic acid] yielded a CC50 in “in vitro” of 1780 ± 250 nM. In the series with CCHFV/ZsG [1], the “selectivity index (SI) CCHFV/ZsG” value is reported as 0.10 ± 0.01 (18). Also, the EC50 in the series on CCHFV/ZsG [1] (setting [3]) came to 100 nM. For the same compound, in the series on wild-type CCHFV, the “selectivity index (SI) CCHFV” value is 0.19 (9) and the EC50 was determined as 190 nM.

Turning to `COc1c(C)c2c(c(O)c1C/C=C(\C)CCC(=O)OCCN1CCOCC1)C(=O)OC2` [MMF, mycophenolate mofetil], in the series “in vitro”, the viability is above 80%. The “ZsG fluorescence in initial screen” value in the series with CCHFV/ZsG [1] is < 30 % of control. Also, the EC50 with CCHFV/ZsG [1] (setting [3]) worked out at 390 ± 130 nM.

On to `Nc1ccn([C@@H]2O[C@H](CO)[C@@H](O)[C@H]2F)c(=O)n1` [2′-dFC, 2′-deoxy-2′-fluorocytidine], for which the “cytotoxicity, result in words” value in the series on SW13 cells is “no associated cytotoxicity”. For the same compound, in “in vitro”, the CC50 was above 50000 nM and the viability was above 80%. Besides, in the series with CCHFV/ZsG [1], the “ZsG fluorescence in initial screen” value was < 30 % of control, the “potency relative to T-705” value is 17 ×, the “potency relative to ribavirin” value came to 200 × and the “selectivity index (SI) CCHFV/ZsG” value is 0.061 ± 0.018 (> 820). Besides, the EC50 with CCHFV/ZsG [1] (setting [3]) turned out to be 61 nM. For the same compound, the adverse clinical effects entry in the series on rats is on record as “no adverse clinical effects”. Besides, in the series with Huh7 cells, the “cytotoxicity, result in words” value is on record as “no cytotoxicity”. In the series on wild-type CCHFV, the “CCHFV titer reduction compared to DMSO only-treated control” value is “approximately 2 logs”, the “selectivity index (SI) CCHFV” value was 0.031 (> 1613), the “virus detection” value was “no virus detected” and the EC50 was determined as 31 nM. The adverse clinical effects result in the series on woodchucks was “no adverse clinical effects”.
